Positions of bridges follow the written chain, without caps; N, C: chain ends. No end group written: not given here.

The series deals with rat DRG sensory neurons. Briefly: Number of DRG neurons (cytotoxicity, high content imaging). Format: cell-based. Particulars: also RAW264.7 and HMEC. The protocol:
We initially determined the cytotoxic effects of xibalbins on primary sensory neurons from adult male rats cultured in vitro [2]. […] We exposed overnight cultures of dissociated rat dorsal root ganglions (DRGs) to xibalbins for 5 and 30 min. Subsequently, all cells were fixed and immunocytochemically stained for the neuronal marker UCHL1 to identify neurons. The entire culture was digitally scanned using high content imaging (HCI) microscopy, and cell numbers, UCHL1 staining per cell, and cell size was analyzed. No loss of neurons was induced by either of the tested xibalbins, even at the highest concentration of 0.8 µg/µL (Additional File 3: Figure S2). […] We further investigated the potential toxicity of xibalbins in monocyte/macrophage-like cells (RAW264.7) and human microvascular endothelial cells (HMEC); see Additional File 5: Figure S4 The viability of RAW264.7 cells was detected using a formazan-based assay, while the proliferation of HMECs was assessed by measuring the number of crystal violet-stained cells.
Male Sprague Dawley rats (250–400 g, 8–16 weeks old) were obtained from Envigo. […]
Stained cells were scanned with a CX7-LZR (Thermo Fisher Scientific) HCI system. Images were acquired with a 10 × objective and analyzed using the cellomics software package (Thermo Fisher Scientific). […] The resulting objects were quantified for average object intensity in all other color channels. […]

Turning to “KRSCIRRFGRCDHRPNDCCYNSSCRCNLWGSNCRCQRMGLFQKWGK (disulfide 4-19, 11-24, 18-35, 26-33) [xib13]”, the “cytolytic or cytotoxic activity” value is given as “do not show overt cytolytic or cytotoxic activity”. In the case of “RLFCIRHHKYCGHRPKRCCSGLFCRCNTFGTNCRCQSKGALGKLI (disulfide 4-19, 11-24, 18-35, 26-33) [xib1]”, the “cytolytic or cytotoxic activity” value is on record as “do not show overt cytolytic or cytotoxic activity”.
